The text below walks through data of patent publication US20060292639A1, “Splice variant of the vanilloid receptor VR1A” (Adolor Corporation, priority 2004, published 2006).

Each structure is given as a SMILES string. Where two headings read alike, the source gives them in different places.

For orientation: IC50 means the concentration that inhibits the measured activity by half. What is called EC50 is the concentration at which the effect is half-maximal. A lower EC50 goes with an effect from little substance.

The target in one assay is T1, human DRG VR1 (Homo sapiens, UniProt Q8NER1, I585V/K332R/M315I).
T1 construct: The two primers were designed to amplify the entire coding region; expressed in transfected cells; CHO is stated only for the VR1A construct
The assay can be described thus: Ca2+ influx assay, stable cell line expressing VR1. The assay is classed as cell-based. The settings on record: for IC50: VR1 stable cell line, N=4, read-out: IC50 Capsazepine. On the procedure: (§1) B. Generation of a stable cell line: The VR1A construct was transfected into 80-90% confluent cultures of CHO cells grown in F12 media containing 10% fetal bovine serum (Hyclone Laboratories). After 48 hours, cells were transferred to selection medium (growth medium containing 1 mg/ml of G418) and 15 days later individual G418 resistant foci were isolated and expanded. In order to identify a functional cell line, the expanded cells were plated in a 96 well plate and grown to confluency. […] Functional clones were retested, expanded and cryopreserved.
(§2) C. Calcium influx assay: The stable cell lines, expressing human DRG VR1 and human pancreas VR1A, were seeded the day before the assay at 40,000 cells/well density in 96 well black clear bottom assay plates (Corning Inc., Corning, N.Y.). On the day of the assay, the medium of cell plates was changed to 0.2 ml of 1× Hanks' balanced salt solution (Invitrogen, Carlsbad, Calif.) containing 20 mM HEPES, pH 7.4, 1.3 mM freshly made probenecid and 3 μM Fluo-3AM (Molecular Devices, Sunnyvale, Calif.). The cell plates were incubated at 37° C. for one hour and left at room temperature for 30 minutes. Serial dilutions of agonist compounds, starting at 100 μM, were set up in 96 well plates and subsequently used for the analysis. Both plates were loaded to the FlexStation in order to run the assay. The excitation wavelength was 485 nM and the emission wavelength was 583 nM.

Another assay deals with T2, human pancreas VR1A (Homo sapiens, UniProt Q8NER1, I585V/M315I/M552V).
T2 construct: VR1A codes for a VR1-like protein, 837 amino acids long, with 148 unique residues at the N-terminal end; expressed in transfected cells; host or cells: CHO
Description: Ca2+ influx assay, stable cell line expressing VR1A. The assay is classed as cell-based. On the procedure:
as §1, §2

T1 sequence (Q8NER1 whole entry M315I/K332R/I585V): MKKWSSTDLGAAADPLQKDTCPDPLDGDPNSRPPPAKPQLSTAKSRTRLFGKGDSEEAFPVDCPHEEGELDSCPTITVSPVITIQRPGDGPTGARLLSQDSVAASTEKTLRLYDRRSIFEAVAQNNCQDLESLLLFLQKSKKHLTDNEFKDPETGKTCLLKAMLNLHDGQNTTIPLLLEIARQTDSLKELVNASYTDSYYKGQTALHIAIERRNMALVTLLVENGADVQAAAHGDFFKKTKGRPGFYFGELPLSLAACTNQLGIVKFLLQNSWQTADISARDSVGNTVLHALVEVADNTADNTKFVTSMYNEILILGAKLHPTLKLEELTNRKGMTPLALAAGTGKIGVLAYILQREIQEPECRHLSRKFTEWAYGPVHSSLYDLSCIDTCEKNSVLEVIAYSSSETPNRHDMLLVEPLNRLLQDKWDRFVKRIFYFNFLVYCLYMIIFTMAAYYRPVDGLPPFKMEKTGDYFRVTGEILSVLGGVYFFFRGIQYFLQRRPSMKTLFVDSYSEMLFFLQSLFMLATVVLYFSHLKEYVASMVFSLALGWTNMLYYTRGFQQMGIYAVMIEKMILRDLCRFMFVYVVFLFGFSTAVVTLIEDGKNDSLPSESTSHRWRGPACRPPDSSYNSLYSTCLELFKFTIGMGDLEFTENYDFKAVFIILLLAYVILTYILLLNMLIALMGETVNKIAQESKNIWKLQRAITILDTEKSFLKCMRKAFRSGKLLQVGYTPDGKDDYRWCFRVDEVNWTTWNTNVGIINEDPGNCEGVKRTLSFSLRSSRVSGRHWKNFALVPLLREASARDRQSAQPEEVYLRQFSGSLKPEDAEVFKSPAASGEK
T2 sequence (Q8NER1 1-837 isoform Q8NER1-3 M313I/M550V/I583V): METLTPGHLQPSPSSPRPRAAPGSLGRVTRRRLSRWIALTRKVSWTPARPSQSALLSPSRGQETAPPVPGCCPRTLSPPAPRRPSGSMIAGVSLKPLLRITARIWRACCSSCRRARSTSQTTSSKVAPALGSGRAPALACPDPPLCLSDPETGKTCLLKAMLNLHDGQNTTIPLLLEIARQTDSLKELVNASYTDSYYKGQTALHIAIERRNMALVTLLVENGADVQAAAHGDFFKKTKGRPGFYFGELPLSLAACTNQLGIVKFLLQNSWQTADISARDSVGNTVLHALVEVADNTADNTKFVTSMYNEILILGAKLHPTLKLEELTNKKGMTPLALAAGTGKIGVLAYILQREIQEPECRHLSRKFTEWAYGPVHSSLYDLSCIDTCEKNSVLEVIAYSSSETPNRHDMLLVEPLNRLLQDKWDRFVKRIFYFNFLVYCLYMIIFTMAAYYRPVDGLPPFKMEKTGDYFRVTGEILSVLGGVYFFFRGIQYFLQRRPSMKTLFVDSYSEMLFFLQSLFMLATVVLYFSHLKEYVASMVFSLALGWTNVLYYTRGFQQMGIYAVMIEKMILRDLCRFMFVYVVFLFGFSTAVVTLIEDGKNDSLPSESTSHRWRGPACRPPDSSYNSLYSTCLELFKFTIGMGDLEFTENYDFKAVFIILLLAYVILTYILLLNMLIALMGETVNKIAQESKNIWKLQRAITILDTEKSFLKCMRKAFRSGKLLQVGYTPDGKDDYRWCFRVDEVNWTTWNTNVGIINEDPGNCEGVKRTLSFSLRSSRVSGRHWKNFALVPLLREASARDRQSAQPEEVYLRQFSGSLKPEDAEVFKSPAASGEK

As for `Oc1cc2c(cc1O)CN(C(=S)NCCc1ccc(Cl)cc1)CCC2` [Capsazepine, capsazepine], the half-maximal inhibitory concentration (IC50) on human DRG VR1 (E-capsaicin as agonist) came out at 194 ± 0.06 nM; at human DRG VR1 (RTX as agonist) it was 140 ± 0.8 nM; on human pancreas VR1A (IC50 Capsazepine, VR1A stable cell line, RTX as agonist, N=4), 25 ± 0.26 nM; on human pancreas VR1A (read-out: IC50 Capsazepine) it was 60 ± 0.1 nM. Also, on human pancreas VR1A (text does not say whether VR1 or VR1A is meant), the “fold lower IC50 value with RTX as an agonist compared to capsaicin as an agonist” value was “approximately 5 fold”.

For the compound `C=C(C)[C@]12C[C@@H](C)[C@@]34O[C@](Cc5ccccc5)(O[C@@H]1[C@@H]3C=C(COC(=O)Cc1ccc(O)c(OC)c1)C[C@]1(O)C(=O)C(C)=C[C@@H]41)O2` [RTX, resiniferatoxin], the EC50 at human DRG VR1 is 1.6 ± 0.17 nM; at human pancreas VR1A, 5 ± 0.08 nM.
